Laboratory results published in BindingDB's records for doi:10.1074/jbc.M110.181594 (Institut Pasteur, 2010).

Target: T1, 2'-deoxynucleoside 5'-phosphate N-hydrolase 1 (Rattus norvegicus, UniProt O35820)
T1 sequence (O35820 whole entry): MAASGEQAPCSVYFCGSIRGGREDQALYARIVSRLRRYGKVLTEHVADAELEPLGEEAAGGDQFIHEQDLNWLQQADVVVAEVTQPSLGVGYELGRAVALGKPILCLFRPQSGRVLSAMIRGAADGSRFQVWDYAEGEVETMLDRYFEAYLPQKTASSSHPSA
Assay: Inhibition Assay
Source text: Rcl inhibition by nucleotides.

SMILES | Ki [µM]
Nc1ncnc2c1ncn2C1OC(COP(O)(O)=S)C(O)C1O (centres undefined) [5'-AMPS] | 14
Nc1nc(=O)c2ncn(COCCOP(=O)(O)O)c2[nH]1 [Acyclovir 5'-monophosphate] | 57
O=c1[nH]c(=O)c2ncn(C3OC(COP(=O)(O)O)C(O)C3O)c2[nH]1 (centres undefined) [XMP] | 54
NC(=O)c1ncn(C2OC(COP(=O)(O)O)C(O)C2O)c1N (centres undefined) [[5-(5-amino-4-carbamoyl-1H-imidazol-1-yl)-3,4-dihydroxyoxolan-2-yl]methyl phosphate] | 52
